In brackets after ≈: the same amount, converted by molar mass. Read-outs that look alike come from different tables or passages of the source.
Legend:
[1] = tested on: multi-drug resistant S. epidermidis (RP62A); settings: for MIC, Gram positive S. epidermidis: Table 7
[2] = tested on: K. pneumoniae (ATCC 13383)
[3] = tested on: human red blood cells (hRBC's); experiment: Hemolysis assay; type: cell-based; settings: for Hemolysis HC10 / Hemolysis HC50: red cells of human
Protocol: Freshly drawn human red blood cells (hRBC's) with additive K2 EDTA (spray-dried) were washed with PBS buffer several times and centrifuged at 1000 g for 10 min until a clear supernatant was observed. The hRBC's were resuspended in 1×PBS to get a 5% v/v suspension. Two-fold serial dilutions of γ-AApeptides dissolved in 1×PBS from 250 μg/ml through 1.6 μg/ml were added to a sterile 96-well plate to make up a total volume of 50 μL in each well. Then 50 μL of 5% v/v hRBC solution was added to make up a total volume of 100 μL in each well. The 0% hemolysis point and 100% hemolysis point were determined in 1×PBS and 0.2% Triton-X-100, respectively (Patch et al., 2003). The plate was then incubated at 37° C. for 1 h and centrifuged at 3500 rpm for 10 min. The supernatant (30 μL) was diluted with 100 μL of 1×PBS and absorption was detected by measuring the optical density at 360 nm by Biotek Synergy HT microtiter plate reader. % hemolysis was determined by the following equation: % hemolysis=(Abssample−AbsPBS)/(AbsTriton−AbsPBS)×100 H50 is the concentration of γ-AApeptide amphiphiles at which 50% hemolysis was observed. The highest concentration tested in the hemolytic assay was 500 μg/ml. 7. Fluorescence Microscopy
The sequences shown in FIG. 12 were also evaluated via hemolytic assays. Freshly drawn human red blood cells (hRBC's) with additive K2 EDTA (spray-dried) were washed with PBS buffer several times and centrifuged at 1000 g for 10 min until a clear supernatant was observed. The hRBC's were resuspended in 1×PBS to get a 5% v/v suspension. Two-fold serial dilutions of lipidated γ-AApeptides dissolved in 1×PBS from 1 mg/ml through 6.3 μg/ml were added to sterile 96-well plates to make up a total volume of 50 μL in each well. Then 50 μL of 5% v/v hRBC solution was added to make up a total volume of 100 μL in each well. The 0% hemolysis point and 100% hemolysis point were determined in 1×PBS and 0.2% Triton-X-100, respectively (Patch et al., 2003). The plate was then incubated at 37° C. for 1 h and centrifuged at 3500 rpm for 10 min. The supernatant (30 μL) was diluted with 100 μL of 1×PBS and absorption was detected by measuring the optical density at 360 nm with a Biotek Synergy HT microtiter plate reader. % hemolysis was determined by the following equation: % hemolysis=(Abs sample−Abs PBS)/(Abs Triton−Abs PBS)×100

[4] = tested on: methicillin-resistant S. aureus (ATCC 33592); settings: for MIC, Gram positive S. aureus: Table 7
[5] = tested on: vancomycin-resistant E. faecalis (ATCC 700802); settings: for MIC, Gram positive E. faecalis: Table 7
[6] = tested on: methicillin-resistant S. aureus (MRSA, USA100 lineage); settings: USA100
[7] = tested on: multi-drug resistant P. aeruginosa ATCC 27853; settings: ATCC 27853

SMILES	MIC, B. subtilis (B. subtilis (BR151)) [µg/mL]	MIC, K. pneumoniae (causing pneumonia) [2] [µg/mL]	Hemolysis (H50) [3] [µg/mL]	MIC, Fungi C. albicans (C. albicans (ATCC 10231); ATCC 10231, 48 h) [µg/mL]	MIC, E. coli (E. coli (JM109)) [µg/mL]	MIC, Gram positive B. subtilis (B. subtilis (BR151)) [µg/mL]	MIC, Gram positive S. epidermidis [1] [µg/mL]	MIC, Gram negative P. aeruginosa [7] [µg/mL]	MIC, Gram negative K. pneumoniae [2] [µg/mL]	Hemolysis HC10 [3] [µg/mL]	Hemolysis HC50 [3] [µg/mL]	MIC, Gram positive S. aureus [4] [µg/mL]	MIC, Fungi, C. albicans (C. albicans (ATCC 10231); ATCC 10231) [µg/mL]	MIC, Gram positive E. faecalis [5] [µg/mL]	MIC, Gram negative E. coli (E. coli (JM109)) [µg/mL]	also measured
NCCCC[C@H](N)CN(CC(=O)N[C@@H](CCCCN)CN(CC(=O)N[C@@H](CCCCN)CN(CC(=O)N[C@@H](CCCCN)CN(CC(=O)N[C@@H](CCCCN)CN(CC(=O)N[C@@H](CCCCN)CN(CC(=O)N[C@@H](CCCCN)CN(CC(N)=O)C(=O)CCc1ccccc1)C(=O)CCc1ccccc1)C(=O)CCc1ccccc1)C(=O)CCc1ccccc1)C(=O)CCc1ccccc1)C(=O)CCc1ccccc1)C(=O)CCc1ccccc1 [γ3]	2.5 (≈ 1.17 µM)	>100	>500	12.5 to 25	2.5 to 5											MIC, S. epidermidis (multi-drug resistant) ([1]; Table 1): 6.25 to 12.5 µg/mL; MIC, S. aureus (methicillin-resistant) ([4]; Table 1): 12.5 to 25 µg/mL; MIC, B. anthracis (lethal bioweapon) (B. anthracis; Table 1): 25 to 50 µg/mL; MIC, E. faecalis (vancomycin-resistant) ([5]; Table 1): 12.5 to 25 µg/mL
CC(C)C[C@@H](CN(CC(=O)N[C@@H](CCCCN)CN(CC(=O)N[C@@H](CCCCN)CN(CC(=O)N[C@@H](CCCCN)CN(CC(N)=O)C(=O)CCc1ccccc1)C(=O)CCc1ccccc1)C(=O)CCc1ccccc1)C(=O)CCc1ccccc1)NC(=O)CN(C[C@H](CCCCN)NC(=O)CN(C[C@H](CCCCN)NC(=O)CN(C[C@@H](N)CCCCN)C(=O)CCc1ccccc1)C(=O)CCc1ccccc1)C(=O)CCc1ccccc1 [γ4]	2.5 (≈ 1.18 µM)		>500	12.5 to 25	2.5 to 5											MIC, S. epidermidis (multi-drug resistant) ([1]; Table 1): 3.1 to 6.25 µg/mL; MIC, S. aureus (methicillin-resistant) ([4]; Table 1): 3.1 to 6.25 µg/mL; MIC, B. anthracis (lethal bioweapon) (B. anthracis; Table 1): 25 to 50 µg/mL; MIC, E. faecalis (vancomycin-resistant) ([5]; Table 1): 12.5 to 25 µg/mL
NCCCC[C@@H](C(N)=O)N(CCNC(=O)[C@H](CCCCN)N(CCNC(=O)[C@H](CCCCN)N(CCNC(=O)[C@H](CCCCN)N(CCNC(=O)[C@H](CCCCN)N(CCNC(=O)[C@H](CCCCN)N(CCNC(=O)[C@H](CCCCN)N(CCN)C(=O)CCc1ccccc1)C(=O)CCc1ccccc1)C(=O)CCc1ccccc1)C(=O)CCc1ccccc1)C(=O)CCc1ccccc1)C(=O)CCc1ccccc1)C(=O)CCc1ccccc1 [α1, reference compound]	2 (≈ 0.934 µM)	>100		20 to 30	4.5 (≈ 2.1 µM)											MIC, MRSA USA100 (leading hospital-associated strain) [6]: >100 µg/mL; MIC, S. epidermidis (multi-drug resistant) ([1]; multi-drug resistant (RP62A)): 10 µg/mL (≈ 4.67 µM); Hemolysis (H50) ([3]; Table 1, concentration at which 50% hemolysis was observed): >500 µg/mL; MIC, S. aureus (methicillin-resistant) ([4]; ATCC 33592): 75 µg/mL (≈ 35 µM); MIC, B. anthracis (lethal bioweapon) (B. anthracis): >100 µg/mL; MIC, E. faecalis (vancomycin-resistant) ([5]; ATCC 700802): 75 µg/mL (≈ 35 µM)
CC(C)CCC(=O)N1CC(=O)N[C@@H](Cc2ccccc2)CN(C(=O)CCC(C)C)CC(=O)N[C@@H](CCCCN)CN(C(=O)CCc2ccccc2)CC(=O)N[C@@H](CCCCN)CN(C(=O)CCc2ccccc2)CC(=O)N[C@@H](CCCCN)CN(C(=O)CCc2ccccc2)CC(=O)N[C@@H](CCCCN)CN(C(=O)CCc2ccccc2)CC(=O)N[C@@H](Cc2ccccc2)CN(CC(N)=O)C(=O)CCC(=O)N[C@@H](Cc2ccccc2)C1 [γAA5]	1 (≈ 0.481 µM)	8 (≈ 3.85 µM)	100		12.5 to 25											MIC, S. epidermidis (multi-drug resistant) ([1]; Table 3): 2 µg/mL (≈ 0.962 µM); MIC, P. aeruginosa [7]: 8 µg/mL (≈ 3.85 µM); MIC, S. aureus (methicillin-resistant) ([4]; Table 3): 1 µg/mL (≈ 0.481 µM); MIC, Fungi C. albicans (C. albicans (ATCC 10231); ATCC 10231): 2 µg/mL (≈ 0.962 µM); MIC, E. faecalis (vancomycin-resistant) ([5]; Table 3): 5 µg/mL (≈ 2.4 µM)
CCCCCCCCCCCCCCCC(=O)N[C@@H](C)CN(CC(=O)N[C@@H](C)CN(CC(=O)N[C@@H](CCCCN)CN(CC(=O)N[C@@H](CCCCN)CN(CC(=O)N[C@@H](CCCCN)CN(CC(N)=O)C(=O)CCCN)C(=O)CCCN)C(=O)CCCN)C(C)=O)C(C)=O [Sequence 5]						2.5 (≈ 1.87 µM)	10 (≈ 7.48 µM)	15 (≈ 11.2 µM)	15 (≈ 11.2 µM)	200	> 500	10 (≈ 7.48 µM)	7.5 (≈ 5.61 µM)	10 (≈ 7.48 µM)	2.5 (≈ 1.87 µM)	
CCCCCCCCCCCCCCCC(=O)N[C@@H](C)CN(CC(=O)N[C@@H](CCCCN)CN(CC(=O)N[C@@H](Cc1ccccc1)CN(CC(=O)N[C@@H](Cc1ccccc1)CN(CC(N)=O)C(=O)CCc1c[nH]cn1)C(=O)CCc1c[nH]cn1)C(=O)CCCN)C(C)=O [γAA3]	1.6 to 3.1	12.5 to 25	150		1.6 to 3.1											MIC, S. epidermidis (multi-drug resistant) ([1]; Table 3): 1.6 to 3.1 µg/mL; MIC, P. aeruginosa [7]: 3 to 6 µg/mL; MIC, S. aureus (methicillin-resistant) ([4]; Table 3): 1.6 to 3.1 µg/mL; MIC, Fungi C. albicans (C. albicans (ATCC 10231); ATCC 10231): 1.6 to 3.1 µg/mL; MIC, E. faecalis (vancomycin-resistant) ([5]; Table 3): 1.6 to 3.1 µg/mL
CCCCCCCCCCCCCCCC(=O)N[C@@H](CCCCN)CN(CC(=O)N[C@@H](CCCCN)CN(CC(N)=O)C(=O)CCCN)C(=O)CCCN [Sequence 3]						1.5 (≈ 1.95 µM)	2.5 (≈ 3.25 µM)	20 (≈ 26 µM)	20 (≈ 26 µM)	40	300	5 (≈ 6.51 µM)	2 (≈ 2.6 µM)	8 (≈ 10.4 µM)	30 (≈ 39.1 µM)	
CCCCCCCCCCCCCCCC(=O)N[C@@H](C)CN(CC(=O)N[C@@H](C)CN(CC(=O)N[C@@H](Cc1ccccc1)CN(CC(=O)N[C@@H](Cc1ccccc1)CN(CC(=O)N[C@@H](Cc1ccccc1)CN(CC(N)=O)C(=O)CC(=O)O)C(=O)CC(=O)O)C(=O)CC(=O)O)C(C)=O)C(C)=O [Sequence 8]						>100	>100	>100	>100	200	> 500	>100	>100	>100	>100	
CCCCCCCC/C=C\CCCCCCCC(=O)N[C@@H](CCCCN)CN(CC(N)=O)C(=O)CCCN [Sequence 10]						2 (≈ 3.72 µM)	2 (≈ 3.72 µM)	3 (≈ 5.58 µM)	35 (≈ 65.1 µM)	40	100	4 (≈ 7.44 µM)	2 (≈ 3.72 µM)	2.5 (≈ 4.65 µM)	2.5 (≈ 4.65 µM)	

Source: patent US10308686B2, “Gamma-AApeptides with potent and broad-spectrum antimicrobial activity” (priority 2012, dated 2019)
